In the NIST ThermoML archive (doi:10.1016/j.jct.2011.04.011):

Conditions: Liquid, Vibrating tube method

COC [dimethyl ether]
mass density [kg/m3]
Conditions	293.84 K	303.45 K	313.18 K	323 K	332.83 K	343.01 K	353 K	362.91 K	372.94 K
1000 kPa	669.27	653.54	–	–	–	–	–	–	–
3000 kPa	673.21	657.94	641.72	624.46	605.7	584.39	560.89	–	–
5000 kPa	676.85	662.06	646.5	630.01	612.33	592.63	571.39	547.69	519.39
10000 kPa	685.08	671.42	657.11	642.19	626.46	609.39	591.7	572.99	552.4
15000 kPa	692.61	679.73	666.38	652.54	638.17	622.87	607.19	591.04	573.78
20000 kPa	699.44	687.19	674.68	661.65	648.33	634.17	619.91	605.41	590.14
25000 kPa	705.75	694.14	682.06	669.81	657.3	644.06	630.86	617.51	603.55
30000 kPa	711.53	700.39	688.96	677.2	665.34	652.87	640.46	627.99	615.07
35000 kPa	717	706.33	695.3	684.06	672.7	660.84	649.09	637.26	625.15
40000 kPa	722.21	711.79	701.19	690.37	679.54	668.11	656.92	645.67	634.21
50000 kPa	731.68	721.98	711.96	701.9	691.67	681.15	670.8	660.45	649.98
60000 kPa	740.35	731.17	721.63	712.04	702.5	692.63	682.9	673.27	663.51
70000 kPa	748.4	739.59	730.55	721.44	712.29	702.89	693.76	684.63	675.48
